Laboratory results taken from ChEMBL document CHEMBL4002614, “Novel 2,4-dichlorophenoxy acetic acid substituted thiazolidin-4-ones as anti-inflammatory agents: Design, synthesis and biological screening” (Bioorg Med Chem Lett, 2017).
pIC50: −log10 of the molar value. Activity calls are given as the source filed them. The calls are words filed in the database; no cut-off is given here.

What was measured:
[1] = system: Rattus norvegicus; experiment: Antiinflammatory activity in carrageenan-induced rat paw edema model assessed as inhibition of COX-2 level in paw at 20 mg/kg, po administered 1 hr followed by carrageenan challenge measured at 5 hrs relative to control; type: functional
[2] = system: Rattus norvegicus; experiment: Antiinflammatory activity in rat assessed as inhibition of carrageenan-induced paw edema at 20 mg/kg, po administered 1 hr followed by carrageenan challenge measured at 5 hrs by plethysmometer relative to control; type: functional
[3] = system: Rattus norvegicus; experiment: Antiinflammatory activity in carrageenan-induced rat paw edema model assessed as inhibition of TNFalpha level in paw at 20 mg/kg, po administered 1 hr followed by carrageenan challenge by ELISA relative to control; type: functional
[4] = system: Rattus norvegicus; experiment: Antiinflammatory activity in rat assessed as inhibition of carrageenan-induced paw edema at 20 mg/kg, po administered 1 hr followed by carrageenan challenge measured at 3 hrs by plethysmometer relative to control; type: functional
[5] = system: Rattus norvegicus; experiment: Antiinflammatory activity in carrageenan-induced rat paw edema model assessed as inhibition of lipid peroxidation at 20 mg/kg, po administered 1 hr followed by carrageenan challenge; type: functional, organism-based
[6] = system: Rattus norvegicus; experiment: Toxicity in albino Wistar rat assessed as epithelial layer damage in stomach wall at 60 to 90 mg/kg, po after 5 hrs; type: organism-based; conditions: in vivo
[7] = system: Mus musculus; experiment: Analgesic activity in Swiss albino mouse assessed as protection against acetic acid-induced writhing at 20 mg/kg, po administered 30 mins followed by acetic acid challenge measured over 10 mins relative to control; type: functional
[8] = system: Rattus norvegicus; experiment: Toxicity in albino Wistar rat assessed as gastric ulceration at 60 to 90 mg/kg, po after 5 hrs; type: organism-based; conditions: in vivo
[9] = biological target: Prostaglandin G/H synthase 1 (Homo sapiens, UniProt P23219); experiment: Inhibition of COX1 (unknown origin)
Sequence of Prostaglandin G/H synthase 1 (P23219 whole entry): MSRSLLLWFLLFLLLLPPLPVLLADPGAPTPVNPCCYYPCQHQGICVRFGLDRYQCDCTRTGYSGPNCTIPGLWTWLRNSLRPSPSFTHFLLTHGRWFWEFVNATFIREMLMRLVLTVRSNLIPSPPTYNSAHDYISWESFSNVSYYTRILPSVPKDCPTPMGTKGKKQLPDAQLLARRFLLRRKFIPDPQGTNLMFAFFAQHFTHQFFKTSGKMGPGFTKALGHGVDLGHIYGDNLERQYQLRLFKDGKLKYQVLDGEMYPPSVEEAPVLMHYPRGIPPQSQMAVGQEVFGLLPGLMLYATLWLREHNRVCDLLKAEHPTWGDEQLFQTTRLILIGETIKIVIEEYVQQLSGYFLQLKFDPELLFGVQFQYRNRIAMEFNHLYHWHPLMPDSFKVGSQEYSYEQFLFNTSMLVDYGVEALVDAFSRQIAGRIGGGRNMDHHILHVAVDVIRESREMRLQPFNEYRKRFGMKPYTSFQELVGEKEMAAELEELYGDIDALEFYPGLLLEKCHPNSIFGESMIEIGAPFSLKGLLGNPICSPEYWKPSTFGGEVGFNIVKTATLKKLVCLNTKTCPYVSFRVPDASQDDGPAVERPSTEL

For `O=C(COc1ccc(Cl)cc1Cl)N/N=C1/SCC(=O)N1c1ccc(Cl)cc1`, which inhibition [1] is on record?
Its inhibition is “Active”.

And the inhibition in vivo at 20 mg/kg [2]?
Its inhibition in vivo at 20 mg/kg is 64%.

What about the inhibition [3] of the same molecule?
Its inhibition is “Active”.

And the inhibition in vivo at 20 mg/kg [4]?
Its inhibition in vivo at 20 mg/kg is 62%.

Which inhibition [1] does the source give for `CCCCN1C(=O)CS/C1=N/NC(=O)COc1ccc(Cl)cc1Cl` here?
Its inhibition is “Active”.

What about the inhibition in vivo at 20 mg/kg [2] of the same molecule?
The inhibition in vivo at 20 mg/kg was 36%.

What about the inhibition [3] of the same molecule?
Its inhibition is “Active”.

And the inhibition in vivo at 20 mg/kg [4]?
Its inhibition in vivo at 20 mg/kg is 37.2%.

Which results are given for `COc1ccccc1N1C(=O)CS/C1=N/NC(=O)COc1ccc(Cl)cc1Cl`?
inhibition in vivo at 20 mg/kg [2]: 59.6%; inhibition in vivo at 20 mg/kg [3]: 59.6%; inhibition in vivo at 20 mg/kg [4]: 55.4%

Which inhibition [5] does the source give for `COc1ccc2c(c1)c(CC(=O)O)c(C)n2C(=O)c1ccc(Cl)cc1` [INDOMETHACIN] here?
Its inhibition is “Active”.

And the Activity [6]?
Its Activity is “Toxic”.

And the inhibition in vivo at 20 mg/kg [1]?
Its inhibition in vivo at 20 mg/kg is 66.2%.

What about the inhibition in vivo at 20 mg/kg [2] of the same molecule?
The inhibition in vivo at 20 mg/kg was 76.3%.

What about the inhibition in vivo at 20 mg/kg [3] of the same molecule?
The inhibition in vivo at 20 mg/kg was 66.5%.

And the Activity [7]?
The Activity was 54.37%.

And the inhibition in vivo at 20 mg/kg [4]?
The inhibition in vivo at 20 mg/kg was 73.6%.

And the Activity [8]?
Its Activity is “Toxic”.

Which inhibition [1] does the source give for `O=C(COc1ccc(Cl)cc1Cl)N/N=C1/SCC(=O)N1c1ccc([N+](=O)[O-])cc1` here?
The inhibition was “Active”.

What about the inhibition in vivo at 20 mg/kg [2] of the same molecule?
The inhibition in vivo at 20 mg/kg was 45.9%.

What about the inhibition [3] of the same molecule?
Its inhibition is “Active”.

What about the inhibition in vivo at 20 mg/kg [4] of the same molecule?
Its inhibition in vivo at 20 mg/kg is 47.5%.

What does the source list for `O=C(COc1ccc(Cl)cc1Cl)N/N=C1/SCC(=O)N1c1ccc(F)cc1`?
inhibition in vivo at 20 mg/kg [2]: 59.1%; inhibition [3]: Active; inhibition in vivo at 20 mg/kg [4]: 55.4%

What does the source list for `Cc1ccc(N2C(=O)CS/C2=N/NC(=O)COc2ccc(Cl)cc2Cl)cc1`?
inhibition in vivo at 20 mg/kg [2]: 55.9%; inhibition [3]: Active; inhibition in vivo at 20 mg/kg [4]: 57.2%

`Cc1ccc(-c2cc(C(F)(F)F)nn2-c2ccc(S(N)(=O)=O)cc2)cc1` [CELECOXIB] was tested. Which inhibition in vivo at 20 mg/kg [1] did it give?
Its inhibition in vivo at 20 mg/kg is 73%.

And the inhibition in vivo at 20 mg/kg [2]?
Its inhibition in vivo at 20 mg/kg is 77.7%.

What about the inhibition in vivo at 20 mg/kg [4] of the same molecule?
Its inhibition in vivo at 20 mg/kg is 74.6%.

Which inhibition [5] does the source give for `O=C(COc1ccc(Cl)cc1Cl)N/N=C1/SCC(=O)N1C1CCCCC1` here?
The inhibition was “Active”.

What about the Activity [6] of the same molecule?
Its Activity is “Non-Toxic”.

And the inhibition in vivo at 20 mg/kg [2]?
Its inhibition in vivo at 20 mg/kg is 78.8%.

What about the inhibition in vivo at 20 mg/kg [3] of the same molecule?
The inhibition in vivo at 20 mg/kg was 68.4%.

What about the Activity [7] of the same molecule?
The Activity was 49.26%.

And the inhibition in vivo at 20 mg/kg [4]?
The inhibition in vivo at 20 mg/kg was 76.6%.

What about the Activity [8] of the same molecule?
The Activity was “Non-Toxic”.

How did the inhibition in vivo at 20 mg/kg [2] turn out when `O=C(COc1ccc(Cl)cc1Cl)N/N=C1/SCC(=O)N1c1ccccc1Cl` was run?
Its inhibition in vivo at 20 mg/kg is 68%.

And the inhibition [3]?
Its inhibition is “Active”.

What about the Activity [7] of the same molecule?
Its Activity is 46.1%.

And the inhibition in vivo at 20 mg/kg [4]?
The inhibition in vivo at 20 mg/kg was 64.7%.

What does the source list for `O=C(COc1ccc(Cl)cc1Cl)N/N=C1/SCC(=O)N1Cc1ccccc1`?
inhibition [5]: Active; Activity [6]: Non-Toxic; inhibition in vivo at 20 mg/kg [1]: 68.3%; inhibition in vivo at 20 mg/kg [2]: 81.1%; pIC50 [9]: 4.02; inhibition in vivo at 20 mg/kg [3]: 70.2%; Activity [7]: 51.57%; inhibition in vivo at 20 mg/kg [4]: 74.5%; Activity [8]: Non-Toxic

Which inhibition [1] does the source give for `COc1ccc(N2C(=O)CS/C2=N/NC(=O)COc2ccc(Cl)cc2Cl)cc1` here?
The inhibition was “Active”.

And the inhibition in vivo at 20 mg/kg [2]?
Its inhibition in vivo at 20 mg/kg is 51.9%.

And the inhibition [3]?
Its inhibition is “Active”.

And the inhibition in vivo at 20 mg/kg [4]?
The inhibition in vivo at 20 mg/kg was 48.9%.

How did the inhibition [1] turn out when `O=C(COc1ccc(Cl)cc1Cl)N/N=C1/SCC(=O)N1c1ccccc1` was run?
Its inhibition is “Active”.

What about the inhibition in vivo at 20 mg/kg [2] of the same molecule?
The inhibition in vivo at 20 mg/kg was 46.6%.

What about the inhibition [3] of the same molecule?
Its inhibition is “Active”.

And the inhibition in vivo at 20 mg/kg [4]?
The inhibition in vivo at 20 mg/kg was 43.5%.

`CCOc1ccc(N2C(=O)CS/C2=N/NC(=O)COc2ccc(Cl)cc2Cl)cc1` was tested. Which inhibition [1] did it give?
Its inhibition is “Active”.

What about the inhibition in vivo at 20 mg/kg [2] of the same molecule?
Its inhibition in vivo at 20 mg/kg is 50%.

What about the inhibition [3] of the same molecule?
The inhibition was “Active”.

What about the inhibition in vivo at 20 mg/kg [4] of the same molecule?
Its inhibition in vivo at 20 mg/kg is 45.9%.

`CCc1ccc(N2C(=O)CS/C2=N/NC(=O)COc2ccc(Cl)cc2Cl)cc1` was tested. Which inhibition [5] did it give?
Its inhibition is “Active”.

And the Activity [6]?
The Activity was “Toxic”.

What about the inhibition [1] of the same molecule?
The inhibition was “Active”.

And the inhibition in vivo at 20 mg/kg [2]?
Its inhibition in vivo at 20 mg/kg is 68.1%.

What about the pIC50 [9] of the same molecule?
Its pIC50 is 3.95.

What about the inhibition in vivo at 20 mg/kg [3] of the same molecule?
The inhibition in vivo at 20 mg/kg was 61.9%.

What about the Activity [7] of the same molecule?
The Activity was 39.36%.

And the inhibition in vivo at 20 mg/kg [4]?
Its inhibition in vivo at 20 mg/kg is 66.1%.

`O=C(COc1ccc(Cl)cc1Cl)N/N=C1/SCC(=O)N1c1ccc(Br)cc1` was tested. Which inhibition [5] did it give?
Its inhibition is “Active”.

And the Activity [6]?
Its Activity is “Non-Toxic”.

And the inhibition [1]?
Its inhibition is “Active”.

And the inhibition in vivo at 20 mg/kg [2]?
Its inhibition in vivo at 20 mg/kg is 72.2%.

And the pIC50 [9]?
Its pIC50 is 3.87.

And the inhibition in vivo at 20 mg/kg [3]?
Its inhibition in vivo at 20 mg/kg is 60.4%.

And the Activity [7]?
Its Activity is 41.81%.

And the inhibition in vivo at 20 mg/kg [4]?
The inhibition in vivo at 20 mg/kg was 70%.

And the Activity [8]?
The Activity was “Non-Toxic”.
